Assay results published in article PMC9112005, “Sas20 is a highly flexible starch-binding protein in the Ruminococcus bromii cell-surface amylosome” (The Journal of Biological Chemistry, 2022).
“And” between values parts separate entries of the source, which are not always exact repeats. Identical values can stand only once. “Also recorded” adds a separate entry of the source. Like-named read-outs stand apart in the source and are kept apart here.

Columns and labels:
[1] = molecular target: Sas20d1 (Ruminococcus bromii, UniProt Z9RYL2BLZ4); experiment: ITC binding to Sas20d1; settings: average of three replicates; for Kd / Kd (μM): 25 °C, 50 mM Hepes pH 7.0, one-site binding model, polysaccharides: based on concentration of binding sites; for N (binding sites): one-site binding model
Description: (§1) ITC measurements were carried out using a TA Instruments Nano ITC. Proteins were dialyzed into 50 mM Hepes (pH = 7.0), and oligosaccharides were prepared using the dialysis buffer. […] For polysaccharide titrations, the concentration of ligand was adjusted to fit a one-site binding model with n = 1; this sets the concentration of the ligand to the concentration of binding sites for the protein within the polysaccharide, as previously described ([77]). The solution was stirred at 250 rpm, and the resulting heat of reaction was measured. Data were analyzed using the TA Instruments NanoAnalyze software package fitting to a one-site binding model.

[2] = molecular target: Sca5X25-2a; experiment: ITC binding to Sca5X25-2a; settings: 25 °C, one-site binding model, average of three replicates
Description: as §1

[3] = molecular target: Sas20d2 (Ruminococcus bromii, UniProt A0A2N0UW79); experiment: ITC binding to Sas20d2; settings: for N (binding sites): one-site binding model
Description: as §1

[4] = molecular target: Sas20d2 W481A; experiment: ITC binding to Sas20d2 W481A mutant; set-up: species or system Ruminococcus bromii; settings: 25 °C, one-site binding model, average of three replicates
[5] = molecular target: Sca5X25-2b; experiment: ITC binding to Sca5X25-2b; settings: 25 °C, one-site binding model, average of three replicates
Description: ITC measurements were carried out using a TA Instruments Nano ITC. Proteins were dialyzed into 50 mM Hepes (pH = 7.0), and oligosaccharides were prepared using the dialysis buffer. […] The solution was stirred at 250 rpm, and the resulting heat of reaction was measured. Data were analyzed using the TA Instruments NanoAnalyze software package fitting to a one-site binding model.

[6] = test system: Sas20d2 W375A; experiment: ITC binding to Sas20d2 W375A mutant; set-up: species or system Ruminococcus bromii
[7] = molecular target: Sas20d1tr (Ruminococcus bromii, UniProt Z9RYL2BLZ4); experiment: ITC binding to truncated Sas20d1 lacking C-terminal helices
Description: as §1

[8] = molecular target: Sca5X25-2 (Ruminococcus bromii, UniProt Z9P1N1M2Z2); experiment: ITC binding to Sca5X25-2
Description: as §1

[9] = test system: Sas20d2 W440A; experiment: ITC binding to Sas20d2 W440A mutant; set-up: species or system Ruminococcus bromii
[10] = test system: Sas20d2 W329A; experiment: ITC binding to Sas20d2 W329A mutant; set-up: species or system Ruminococcus bromii
[11] = molecular target: Sas20d1 W72A; experiment: ITC binding to Sas20d1 W72A mutant; set-up: species or system Ruminococcus bromii; settings: 25 °C, one-site binding model, average of three replicates
[12] = molecular target: Sas20d1 Y60A; experiment: ITC binding to Sas20d1 Y60A mutant; set-up: species or system Ruminococcus bromii; settings: 25 °C, one-site binding model, average of three replicates
[13] = 25 °C, one-site binding model, average of three replicates
[14] = Kd (μM), 25 °C, one-site binding model, average of three replicates, asterisk denotes fixed Kd
[15] = 25 °C, 50 mM Hepes pH 7.0, one-site binding model, average of three replicates, polysaccharides: based on concentration of binding sites

Sequence of Sas20d1tr (Z9RYL2BLZ4 14-173 limits assumed): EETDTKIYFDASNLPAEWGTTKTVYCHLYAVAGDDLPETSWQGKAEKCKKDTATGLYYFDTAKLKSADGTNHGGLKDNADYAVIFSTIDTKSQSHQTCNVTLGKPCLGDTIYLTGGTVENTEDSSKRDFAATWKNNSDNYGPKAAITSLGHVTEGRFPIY
Sequence of Sas20d2 (A0A2N0UW79 entry or part of it): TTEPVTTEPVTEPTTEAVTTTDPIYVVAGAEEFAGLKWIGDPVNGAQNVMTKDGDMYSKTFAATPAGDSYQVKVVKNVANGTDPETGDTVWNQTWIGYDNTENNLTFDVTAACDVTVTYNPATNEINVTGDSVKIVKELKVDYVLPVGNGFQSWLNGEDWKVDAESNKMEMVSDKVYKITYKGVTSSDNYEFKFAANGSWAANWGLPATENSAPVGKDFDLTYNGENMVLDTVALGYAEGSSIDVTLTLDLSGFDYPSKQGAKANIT
Sequence of Sca5X25-2 (Z9P1N1M2Z2 14-256 limits assumed): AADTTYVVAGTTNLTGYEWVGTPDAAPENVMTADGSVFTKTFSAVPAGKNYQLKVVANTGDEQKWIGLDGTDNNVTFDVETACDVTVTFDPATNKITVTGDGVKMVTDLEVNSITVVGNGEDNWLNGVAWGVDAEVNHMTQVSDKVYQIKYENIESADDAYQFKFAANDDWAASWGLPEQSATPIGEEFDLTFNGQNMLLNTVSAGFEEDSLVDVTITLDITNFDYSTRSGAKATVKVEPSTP
Sequence of Sas20d1 (Z9RYL2BLZ4 14-251 limits assumed): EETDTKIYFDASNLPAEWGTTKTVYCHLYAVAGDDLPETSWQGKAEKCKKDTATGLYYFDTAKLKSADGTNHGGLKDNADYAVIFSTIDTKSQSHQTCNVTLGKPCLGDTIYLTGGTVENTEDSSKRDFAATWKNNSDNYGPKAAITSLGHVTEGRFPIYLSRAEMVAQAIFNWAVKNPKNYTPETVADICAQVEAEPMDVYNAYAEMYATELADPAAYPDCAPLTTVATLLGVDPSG
Sequence of Sca5X25-2a (Z9P1N1M2Z2 13-117 limits assumed): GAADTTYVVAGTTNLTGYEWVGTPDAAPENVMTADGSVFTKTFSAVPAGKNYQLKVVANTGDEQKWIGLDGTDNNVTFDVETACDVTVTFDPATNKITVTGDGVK
Sequence of Sca5X25-2b (Z9P1N1M2Z2 118-256 limits assumed): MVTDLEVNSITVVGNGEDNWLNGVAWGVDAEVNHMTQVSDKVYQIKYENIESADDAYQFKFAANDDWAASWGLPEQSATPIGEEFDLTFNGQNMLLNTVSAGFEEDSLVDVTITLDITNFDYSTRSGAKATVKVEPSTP

O=[N+]([O-])c1ccc(OC2OC(CO)C(OC3OC(CO)C(OC4OC(CO)C(OC5OC(CO)C(OC6OC(CO)C(OC7OC(CO)C(OC8OC9COC(c%10ccccc%10)OC9C(O)C8O)C(O)C7O)C(O)C6O)C(O)C5O)C(O)C4O)C(O)C3O)C(O)C2O)cc1 (centres unmarked) [B-PNP-M7, benzylidene-blocked para-nitrophenyl maltoheptaoside]
Kd [1]: 7.12 ± 1.53 µM | N (binding sites) [1]: 1.28 ± 0.29

OC[C@H]1O[C@H](O[C@H]2[C@H](O)[C@@H](O)[C@@H](O[C@H]3[C@H](O)[C@@H](O)[C@@H](O[C@H]4[C@H](O)[C@@H](O)[C@@H](O[C@H]5[C@H](O)[C@@H](O)[C@@H](O[C@H]6[C@H](O)[C@@H](O)[C@@H](O[C@H]7[C@H](O)[C@@H](O)C(O)O[C@@H]7CO)O[C@@H]6CO)O[C@@H]5CO)O[C@@H]4CO)O[C@@H]3CO)O[C@@H]2CO)[C@H](O)[C@@H](O)[C@@H]1O (some centres unmarked) [Maltoheptaose, maltoheptaose]
Kd (μM) [2]: failed to bind | fold lower Kd for maltoheptaose over maltotriose [3]: ~1500 × | N (binding sites) [3]: 1.15 ± 0.15 | Kd (μM) [4]: eliminated binding | Kd (μM) [5]: failed to bind | fold increase in the Kd compared with WT Sas20d2 [6]: ~100 fold | Kd [6, 13]: 88.1 ± 36 µM | fold decrease in binding versus full-length Sas20d1 [7]: ~100 fold | Kd [7, 14]: 155 ± 63 µM | N (binding sites) ([7]; one-site binding model): 1.45 ± 0.27 | Kd ([1]; Kd (μM)): ≤ 20 µM and 1.5 µM and 1.53 µM | N (binding sites) [1]: 0.89 ± 0.38 | Kd [8]: 0.21 ± 0.029 µM | N (binding sites) ([8]; ITC, one-site binding model): 0.81 ± 0.09 | fold increase in the Kd compared with WT Sas20d2 [9]: ~100 fold | Kd [9, 13]: 90 ± 7.72 µM | fold increase in the Kd compared with WT Sas20d2 [10]: ~100 fold | Kd [10, 13]: 90.8 ± 25.7 µM | Kd (μM) [11]: did not bind | Kd [12]: 8.29 ± 0.51 µM | Kd (μM) [12]: binds

OC[C@H]1O[C@H](O[C@H]2[C@H](O)[C@@H](O)[C@@H](O[C@H]3[C@H](O)[C@@H](O)C(O)O[C@@H]3CO)O[C@@H]2CO)[C@H](O)[C@@H](O)[C@@H]1O (some centres unmarked) [Maltotriose, maltotriose]
N (binding sites) [3]: 1.18 ± 0.05 | Kd (μM) [4]: eliminated binding | Kd (μM) [6, 13]: loss of binding | Kd (μM) [9, 13]: loss of binding | Kd (μM) [10, 13]: loss of binding | Kd (μM) [11]: did not bind

O=[N+]([O-])c1ccc(O[C@H]2O[C@H](CO)[C@@H](O[C@H]3O[C@H](CO)[C@@H](O[C@H]4O[C@H](CO)[C@@H](O[C@H]5O[C@H](CO)[C@@H](O[C@H]6O[C@H](CO)[C@@H](OC7OC(CO)C(O)C(O)C7O)[C@H](O)[C@H]6O)[C@H](O)[C@H]5O)[C@H](O)[C@H]4O)[C@H](O)[C@H]3O)[C@H](O)[C@H]2O)cc1 (stereo partly drawn) [PNP-M6, PNP-α-maltohexaose]
Kd [1]: 0.87 ± 0.48 µM | N (binding sites) [1]: 1.15 ± 0.07

OC[C@H]1O[C@@H]2O[C@H]3[C@H](O)[C@@H](O)[C@@H](O[C@H]4[C@H](O)[C@@H](O)[C@@H](O[C@H]5[C@H](O)[C@@H](O)[C@@H](O[C@H]6[C@H](O)[C@@H](O)[C@@H](O[C@H]7[C@H](O)[C@@H](O)[C@@H](O[C@H]1[C@H](O)[C@H]2O)O[C@@H]7CO)O[C@@H]6CO)O[C@@H]5CO)O[C@@H]4CO)O[C@@H]3CO [α-Cyclodextrin, α-cyclodextrin]
Kd (μM) [3, 15]: Neither Sas20d2 nor Sca5X25-2 bound; also recorded: failed to bind | Kd [7]: > 1000 µM | Kd (μM) [1]: failed to bind | Kd (μM) ([8]; ITC, 25 °C, one-site binding model, average of three replicates): Neither Sas20d2 nor Sca5X25-2 bound

OC[C@H]1O[C@@H]2O[C@H]3[C@H](O)[C@@H](O)[C@@H](O[C@H]4[C@H](O)[C@@H](O)[C@@H](O[C@H]5[C@H](O)[C@@H](O)[C@@H](O[C@H]6[C@H](O)[C@@H](O)[C@@H](O[C@H]7[C@H](O)[C@@H](O)[C@@H](O[C@H]8[C@H](O)[C@@H](O)[C@@H](O[C@H]1[C@H](O)[C@H]2O)O[C@@H]8CO)O[C@@H]7CO)O[C@@H]6CO)O[C@@H]5CO)O[C@@H]4CO)O[C@@H]3CO [β-Cyclodextrin, β-cyclodextrin]
Kd (μM) [3, 15]: weak binding | N (binding sites) [3]: 0.98 ± 0.09 | Kd ([7]; Kd): > 1000 µM | Kd [7, 14]: 1050 ± 168 µM | Kd (μM) [1]: failed to bind | Kd [8]: 346 ± 78.8 µM | N (binding sites) ([8]; ITC, one-site binding model): 0.958 ± 0.01

soluble starch
Kd [3, 15]: ≤ 20 µM | Kd [1]: ≤ 20 µM
